Results taken from US7326790B2, “Diphenylisoxazole compounds and hydro isomers thereof” (Rigel Pharmaceuticals, Inc., priority 2003, dated 2008).

The compounds below were run on HCV replicon (5-2 Luc replicon-comprising cells) (assay: HCV replicon assay (luciferase)). Details: Hepatitis C virus; 5-2 Luc replicon cells, 24 hours with compound, luciferase activity.
Format: cell-based
Text: In one embodiment, the inhibitory activity of the compounds can be confirmed in a replicon assay that assesses the ability of a test compound to block or inhibit HCV replication in replicon cells. One example of a suitable replicon assay is the liver cell-line Huh 7-based replicon assay described in Lohmann et al., 1999, Science 285:110-113. A specific example of this replicon assay which utilizes luciferase translation is provided in the Examples Section. In one embodiment of this assay, the amount of test compound that yields a 50% reduction in translation as compared to a control cell (IC50) may be determined.
The inhibitory activity of certain exemplary compounds of the invention was confirmed using an HCV replicon assay. The HCV replicon can include such features as the HCV 5′ untranslated region including the HCV IRES, the HCV 3′ untranslated region, selected HCV genes encoding HCV polypeptides, selectable markers, and a reporter gene such as luciferase, GFP, etc. In the assay, actively dividing 5-2 Luc replicon-comprising cells (obtained from Ralf Bartenschlager; see Lohmann et al., 1999, Science 285:110-113) were seeded at a density of between about 5,000 and 7,500 cells/well onto 96 well plates (about 90 μl of cells per well) and incubated at 37° C. and 5% CO2 for 24 hours. Then, the test compound (in a volume of about 10 μl) was added to the wells at various concentrations and the cells were incubated for an additional 24 hours before luciferase assay. Briefly, the Bright-Glo reagent was diluted 1:1 with PBS and 100 μl of diluted reagent was added to each well. After 5 min of incubation at room temperature, luciferin emission was quantified with a luminometer. In this assay, the amount of test compound that yielded a 50% reduction in luciferase activity (IC50) was determined.

SMILES	IC50
O=C(Nc1cccc(-c2cc(-c3c(Cl)cccc3Cl)on2)c1)C(Cl)Cl [Compound 39, 2,2-Dichloro-N-[3-[5-(2,6-dichlorophenyl)-3-isoxazolyl]phenyl]Acetamide]	< 10 µM
O=C(Nc1ccc(-c2cc(-c3ccccc3Cl)no2)cc1)C(Cl)Cl [Compound 55, 2,2-Dichloro-N-[4-[3-(2-chlorophenyl)-5-isoxazolyl]phenyl]Acetamide]	≤ 10 µM
O=C(Nc1ccc(-c2cc(-c3c(F)cccc3F)no2)cc1)C(Cl)Cl [Compound 59, 2,2-Dichloro-N-[4-[3-(2,6-difluorophenyl)-5-isoxazolyl]phenyl]Acetamide]	≤ 10 µM
